# From ChEMBL document CHEMBL1201862, “PubChem BioAssay data set” (2004)
# Calls of active or inactive are those of the source.
# Columns and labels:
# [1] = target: Perilipin-1/ABHD5 (Homo sapiens, UniProt O60240+Q8WTS1); experiment: Luminescence-based biochemical high throughput dose response assay for inhibitors of the interaction of the lipase co-activator protein, abhydrolase domain containing 5 (ABHD5) with perilipin-1 (PLIN1) (2K validation set). [Related pubchem assays (depositor defined):AID493027, AID493057]
# [2] = target: 1-acylglycerol-3-phosphate O-acyltransferase ABHD5/Perilipin-5 (Homo sapiens, UniProt Q00G26+Q8WTS1); experiment: Luminescence-based biochemical high throughput dose response assay for inhibitors of the interaction of the lipase co-activator protein, abhydrolase domain containing 5 (ABHD5) with perilipin-5 (MLDP; PLIN5) (2K validation set). [Related pubchem assays (depositor defined):AID493035, AID493241]
# [3] = target: Delta-type opioid receptor (Homo sapiens, UniProt P41143); experiment: SAR Analysis of Antagonists of the DOR Receptor using an Image-Based Assay - Set 3. [Related pubchem assays (depositor defined):AID1777, AID1785]; type: functional;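 also: U2OS cells expressing DOR1 and beta-arrestin GFP stimulated with 100 nM SNC80; imaging of GFP-tagged beta-arrestin moving into spots after receptor activation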
# [4] = target: Mu-type opioid receptor (Homo sapiens, UniProt P35372); experiment: SAR Analysis of Antagonists of the MOR Receptor using an Image-Based Assay - Set 3. [Related pubchem assays (depositor defined):AID1777, AID1785, AID1786, AID1966, AID2133, AID2136, AID2284, AID2285, AID2420]; type: functional
# [5] = target: T1, Kappa-type opioid receptor (Homo sapiens, UniProt P41145); experiment: SAR analysis of small molecule antagonists of the kappa opioid receptor via a luminescent beta-arrestin assay - Set 4. [Related pubchem assays (depositor defined):AID1777, AID1778, AID1785, AID1786, AID1966, AID2133, AID2136, AID2285]; type: functional
# [6] = target: T1, Kappa-type opioid receptor; experiment: SAR analysis of Antagonists of the Kappa Opioid Receptor (KOR) using an Image-Based Assay - Set 4. [Related pubchem assays (depositor defined):AID1777, AID1785]; type: functional
# [7] = target: Induced myeloid leukemia cell differentiation protein Mcl-1 (Homo sapiens, UniProt Q07820); type: functional
# [8] = target: T2, SUMO-activating enzyme (Homo sapiens, UniProt Q9UBT2); experiment: blockers of SAE1/SAE2–UBC9 SUMO transfer – biochemical, HTRF, uHTS, primary screen (AID 2006); type: protein-complex assay
# [9] = target: T2, SUMO-activating enzyme; experiment: blockers of UBC9-mediated SUMO conjugation – biochemical, AlphaScreen, SUMOylation inhibitor project, confirmation (AID 2018); type: functional
# [10] = target: T3, Zinc finger protein mex-5 (Caenorhabditis elegans, UniProt Q9XUB2); experiment: potency of MEX-5 RNA-binding blockers – biochemical, C. elegans, fluorescence polarization, dose response (AID 1960)
# T3 sequence (Q9XUB2 whole entry): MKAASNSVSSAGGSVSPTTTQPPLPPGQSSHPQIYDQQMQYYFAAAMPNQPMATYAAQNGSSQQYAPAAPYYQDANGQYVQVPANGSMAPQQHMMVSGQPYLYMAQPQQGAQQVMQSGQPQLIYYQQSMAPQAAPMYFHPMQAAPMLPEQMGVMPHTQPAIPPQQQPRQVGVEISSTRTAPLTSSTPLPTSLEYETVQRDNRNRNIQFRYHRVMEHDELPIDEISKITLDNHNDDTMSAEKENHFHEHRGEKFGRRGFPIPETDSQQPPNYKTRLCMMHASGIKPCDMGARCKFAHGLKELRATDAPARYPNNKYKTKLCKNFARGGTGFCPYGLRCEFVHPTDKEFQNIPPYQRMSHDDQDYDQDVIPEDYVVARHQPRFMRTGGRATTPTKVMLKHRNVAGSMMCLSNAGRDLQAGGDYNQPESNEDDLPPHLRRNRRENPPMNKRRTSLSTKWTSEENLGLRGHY
# [11] = target: T4, Leucine aminopeptidase (Plasmodium falciparum 3D7, UniProt Q8IL11); experiment: P. falciparum M17LAP inhibitors, primary screen, biochemical, fluorogenic H-Leu-NHMec substrate, 1536-well (AID 1619); type: functional
# T4 sequence (Q8IL11 whole entry): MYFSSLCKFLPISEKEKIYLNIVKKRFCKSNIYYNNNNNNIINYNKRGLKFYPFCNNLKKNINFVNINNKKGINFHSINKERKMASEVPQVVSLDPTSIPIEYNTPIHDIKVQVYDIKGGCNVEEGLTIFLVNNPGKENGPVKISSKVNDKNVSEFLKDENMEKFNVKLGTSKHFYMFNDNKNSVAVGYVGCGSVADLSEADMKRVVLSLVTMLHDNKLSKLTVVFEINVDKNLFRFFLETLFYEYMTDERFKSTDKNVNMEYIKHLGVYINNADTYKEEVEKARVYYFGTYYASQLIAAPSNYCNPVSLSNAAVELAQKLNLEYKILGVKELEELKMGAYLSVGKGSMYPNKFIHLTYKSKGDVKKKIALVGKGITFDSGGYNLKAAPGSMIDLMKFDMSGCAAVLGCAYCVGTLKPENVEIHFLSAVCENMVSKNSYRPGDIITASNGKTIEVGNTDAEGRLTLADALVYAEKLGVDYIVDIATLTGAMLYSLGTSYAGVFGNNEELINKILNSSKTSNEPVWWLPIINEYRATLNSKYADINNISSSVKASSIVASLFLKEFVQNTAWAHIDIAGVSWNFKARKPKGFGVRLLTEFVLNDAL
# [12] = target: Eukaryotic translation initiation factor 4E (Mus musculus, UniProt P63073); experiment: blockers of eIF4G binding by eIF4E – biochemical, TR-FRET, dose response (AID 855); type: functional;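 also: potency for disrupting eIF4E binding to eIF4GI seen as loss of FRET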
# [13] = target: T5, RNA-binding protein pos-1 (Caenorhabditis elegans, UniProt G5EF15); experiment: disruptors of C. elegans POS-1 RNA interaction – biochemical, fluorescence polarization, dose response (AID 1964);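 also: purified POS-1 fused to maltose binding protein made in E. coli; potency of compounds blocking POS-1 binding to fluorescent RNA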
# T5 sequence (G5EF15 whole entry): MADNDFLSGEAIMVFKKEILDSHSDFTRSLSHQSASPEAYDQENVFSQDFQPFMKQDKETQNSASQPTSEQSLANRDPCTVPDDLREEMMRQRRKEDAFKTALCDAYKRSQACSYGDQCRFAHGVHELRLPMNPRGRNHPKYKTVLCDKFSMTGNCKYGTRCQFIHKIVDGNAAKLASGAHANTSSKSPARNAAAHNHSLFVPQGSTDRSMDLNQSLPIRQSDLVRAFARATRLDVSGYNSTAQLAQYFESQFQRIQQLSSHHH
# [14] = target: T1, Kappa-type opioid receptor; experiment: SAR analysis of Antagonists of the Kappa Opioid Receptor (KOR) using an Image-Based Assay - Set 3. [Related pubchem assays (depositor defined):AID1777, AID1785]; type: functional
# [15] = target: T1, Kappa-type opioid receptor; experiment: SAR analysis of small molecule antagonists of the kappa opioid receptor via a luminescent beta-arrestin assay - Set 3. [Related pubchem assays (depositor defined):AID1777, AID1778, AID1785, AID1786, AID1966, AID2133, AID2136, AID2285, AID2495]; type: functional
# [16] = target: T6, Replicative DNA helicase DnaB (Mycobacterium tuberculosis, UniProt P9WMR3); experiment: DnaB intein splicing inhibitors, dose response, biochemical, cell-free fluorescence (AID 449749); type: functional
# T6 sequence (P9WMR3 whole entry): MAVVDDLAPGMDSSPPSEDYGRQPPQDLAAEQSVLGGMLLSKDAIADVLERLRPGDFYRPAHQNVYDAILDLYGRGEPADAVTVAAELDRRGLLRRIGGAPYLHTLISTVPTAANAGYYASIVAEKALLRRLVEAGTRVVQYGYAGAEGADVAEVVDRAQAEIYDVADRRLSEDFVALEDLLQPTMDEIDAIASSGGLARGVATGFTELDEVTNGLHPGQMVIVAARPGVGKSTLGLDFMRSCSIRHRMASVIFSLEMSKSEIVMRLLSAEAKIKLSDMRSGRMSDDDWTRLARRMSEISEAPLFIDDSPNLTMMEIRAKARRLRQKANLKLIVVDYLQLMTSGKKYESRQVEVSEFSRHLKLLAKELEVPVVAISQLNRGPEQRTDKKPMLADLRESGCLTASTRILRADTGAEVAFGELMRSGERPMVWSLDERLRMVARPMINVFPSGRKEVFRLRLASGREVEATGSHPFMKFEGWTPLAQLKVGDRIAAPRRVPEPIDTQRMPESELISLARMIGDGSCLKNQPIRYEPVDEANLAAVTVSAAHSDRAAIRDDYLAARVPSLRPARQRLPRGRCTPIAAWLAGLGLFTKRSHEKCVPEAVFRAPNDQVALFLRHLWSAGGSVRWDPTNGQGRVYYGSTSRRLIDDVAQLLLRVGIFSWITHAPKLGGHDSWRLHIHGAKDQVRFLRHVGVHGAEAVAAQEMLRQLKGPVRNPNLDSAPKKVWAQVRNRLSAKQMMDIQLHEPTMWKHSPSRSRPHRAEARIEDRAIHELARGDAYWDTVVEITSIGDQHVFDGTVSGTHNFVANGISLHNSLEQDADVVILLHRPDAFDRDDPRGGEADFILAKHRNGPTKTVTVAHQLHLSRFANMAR
# [17] = test system: Vero; experiment: viability of Vero cells under compound – cytotoxicity control for flavivirus capping enzyme inhibitors (AID 588742); type: functional; conditions: Chlorocebus sabaeus
# [18] = Intein inhibitors as potential Tuberculosis drugs, a cytotoxicity screen. [Related pubchem assays (depositor defined):AID2221, AID2223, AID434968, AID435010, AID449749, AID449750, AID489010]; type: functional
# [19] = target: T7, Protein RecA (Mycobacterium tuberculosis, UniProt P9WHJ3); experiment: Fluorescence Cell-Free Homogeneous Dose Retest to Identify Inhibitors of RecA-Intein Splicing Activity. [Related pubchem assays (depositor defined):AID2097, AID2223, AID489010, AID492950]; type: functional
# T7 sequence (P9WHJ3 whole entry): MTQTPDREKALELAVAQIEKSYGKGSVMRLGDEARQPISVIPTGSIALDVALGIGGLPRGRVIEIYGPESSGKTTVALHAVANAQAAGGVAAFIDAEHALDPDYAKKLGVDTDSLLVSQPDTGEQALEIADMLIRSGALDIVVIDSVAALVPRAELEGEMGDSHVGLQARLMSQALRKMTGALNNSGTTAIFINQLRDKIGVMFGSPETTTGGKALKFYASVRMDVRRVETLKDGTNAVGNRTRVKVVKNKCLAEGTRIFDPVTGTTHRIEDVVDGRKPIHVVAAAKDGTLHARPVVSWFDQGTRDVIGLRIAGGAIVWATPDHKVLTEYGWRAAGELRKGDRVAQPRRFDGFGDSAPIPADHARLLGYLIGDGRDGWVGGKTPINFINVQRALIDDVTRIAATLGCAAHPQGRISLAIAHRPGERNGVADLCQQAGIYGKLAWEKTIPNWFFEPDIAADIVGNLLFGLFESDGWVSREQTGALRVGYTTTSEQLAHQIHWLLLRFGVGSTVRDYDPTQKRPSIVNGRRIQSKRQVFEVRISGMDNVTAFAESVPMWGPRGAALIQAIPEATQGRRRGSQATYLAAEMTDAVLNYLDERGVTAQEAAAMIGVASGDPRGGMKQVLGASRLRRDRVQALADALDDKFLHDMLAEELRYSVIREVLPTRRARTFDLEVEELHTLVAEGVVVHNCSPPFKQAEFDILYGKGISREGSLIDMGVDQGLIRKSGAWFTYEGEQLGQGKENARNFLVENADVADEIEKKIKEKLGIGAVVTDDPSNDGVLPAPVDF
# [20] = test system: INS1; experiment: INS-1E survival protection against cytokine death – cell-based, luminescence, retest, dose response (AID 449756); type: functional; conditions: Rattus norvegicus;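 also: cell death triggered by IL-1 beta plus TNF-alpha plus IFN-gamma mixture; protective hits raise ATP signal compared with cytokine alone wells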
# [21] = Luminescence Cell-Based Dose Retest to Confirm Inhibitors of Cancer Stem Cells. [Related pubchem assays (depositor defined):AID2717, AID2721]; type: functional; conditions: Homo sapiens
# [22] = target: Genome polyprotein (dengue virus type 2, UniProt P29990); experiment: flavivirus cap methylation enzyme inhibition – biochemical, confirmation dose response, primary screen (AID 588689); type: functional
# [23] = viability loss in HepG2 hepatoma cells – cell-based, ATP luminescence, cherry-pick, activator set 2, cytotoxicity control, dose response (AID 1053143); type: functional
# [24] = protection from phage-mediated lysis, alamar blue read-out – E. coli UTI89, K1F phage, bacterial capsule biogenesis inhibitors (AID 488966); type: functional
# [25] = target: Tumor necrosis factor (Homo sapiens, UniProt P01375); experiment: analog potency on TNFa NF-kB signaling – cell-based, revised, SAR follow-up (AID 2337); type: functional
# [26] = target: Nucleotide-binding oligomerization domain-containing protein 1 (Homo sapiens, UniProt Q9Y239); experiment: blockers of NOD1 pathway activity – revised, SAR follow-up (AID 2333); type: functional
# [27] = test system: HEK293; experiment: cells; conditions: Homo sapiens;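 also: cells exposed to compound for 14 hours overnight before viability readout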
# T1 sequence (P41145 whole entry): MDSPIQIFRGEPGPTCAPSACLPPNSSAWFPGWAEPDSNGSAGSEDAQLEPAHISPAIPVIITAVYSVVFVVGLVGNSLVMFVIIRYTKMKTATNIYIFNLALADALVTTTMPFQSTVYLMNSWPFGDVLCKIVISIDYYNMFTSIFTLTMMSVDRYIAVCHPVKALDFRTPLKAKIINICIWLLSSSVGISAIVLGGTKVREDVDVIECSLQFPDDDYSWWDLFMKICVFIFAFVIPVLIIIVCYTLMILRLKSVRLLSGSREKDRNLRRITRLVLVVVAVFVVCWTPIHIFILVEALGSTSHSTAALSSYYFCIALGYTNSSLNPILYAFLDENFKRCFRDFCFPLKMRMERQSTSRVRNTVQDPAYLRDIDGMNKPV
# T2 sequence (Q9UBE0 whole entry): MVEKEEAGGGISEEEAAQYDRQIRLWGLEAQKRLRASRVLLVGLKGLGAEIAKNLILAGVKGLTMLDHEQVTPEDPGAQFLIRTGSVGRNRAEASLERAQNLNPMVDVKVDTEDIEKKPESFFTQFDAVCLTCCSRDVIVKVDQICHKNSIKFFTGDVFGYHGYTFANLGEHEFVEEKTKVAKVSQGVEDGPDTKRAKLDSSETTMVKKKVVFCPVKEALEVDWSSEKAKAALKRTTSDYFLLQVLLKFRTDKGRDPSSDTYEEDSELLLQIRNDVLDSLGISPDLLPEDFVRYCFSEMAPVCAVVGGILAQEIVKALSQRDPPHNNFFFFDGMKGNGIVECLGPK
# T2 sequence (Q9UBT2 whole entry): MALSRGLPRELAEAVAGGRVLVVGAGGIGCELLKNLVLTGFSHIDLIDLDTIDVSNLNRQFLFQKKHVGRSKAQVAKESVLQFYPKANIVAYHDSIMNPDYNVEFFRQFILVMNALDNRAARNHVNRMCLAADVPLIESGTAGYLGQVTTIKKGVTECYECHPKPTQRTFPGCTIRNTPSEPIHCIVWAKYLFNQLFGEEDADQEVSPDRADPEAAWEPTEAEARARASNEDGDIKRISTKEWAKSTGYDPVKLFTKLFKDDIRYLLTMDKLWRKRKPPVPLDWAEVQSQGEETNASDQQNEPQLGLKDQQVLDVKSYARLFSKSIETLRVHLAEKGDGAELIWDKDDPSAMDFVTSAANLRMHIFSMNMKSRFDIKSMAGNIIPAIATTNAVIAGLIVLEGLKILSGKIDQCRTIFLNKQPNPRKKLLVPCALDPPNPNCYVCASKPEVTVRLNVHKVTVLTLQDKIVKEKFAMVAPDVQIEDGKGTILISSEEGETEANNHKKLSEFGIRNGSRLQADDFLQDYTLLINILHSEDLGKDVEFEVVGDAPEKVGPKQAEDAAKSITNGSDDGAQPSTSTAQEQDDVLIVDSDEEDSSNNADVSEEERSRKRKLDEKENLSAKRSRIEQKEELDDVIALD
# Mu-type opioid receptor, sequence (P35372 whole entry): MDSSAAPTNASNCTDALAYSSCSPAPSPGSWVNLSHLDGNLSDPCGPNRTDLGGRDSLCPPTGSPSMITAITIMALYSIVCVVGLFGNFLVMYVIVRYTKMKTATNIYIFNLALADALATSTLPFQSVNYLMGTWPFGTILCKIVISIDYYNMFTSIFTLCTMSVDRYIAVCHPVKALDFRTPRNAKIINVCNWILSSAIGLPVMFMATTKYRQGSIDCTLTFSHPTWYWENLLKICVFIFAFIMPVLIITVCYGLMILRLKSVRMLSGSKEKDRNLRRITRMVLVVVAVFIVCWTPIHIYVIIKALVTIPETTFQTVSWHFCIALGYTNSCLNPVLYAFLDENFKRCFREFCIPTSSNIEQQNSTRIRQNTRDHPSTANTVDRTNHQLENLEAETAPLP
# Delta-type opioid receptor, sequence (P41143 whole entry): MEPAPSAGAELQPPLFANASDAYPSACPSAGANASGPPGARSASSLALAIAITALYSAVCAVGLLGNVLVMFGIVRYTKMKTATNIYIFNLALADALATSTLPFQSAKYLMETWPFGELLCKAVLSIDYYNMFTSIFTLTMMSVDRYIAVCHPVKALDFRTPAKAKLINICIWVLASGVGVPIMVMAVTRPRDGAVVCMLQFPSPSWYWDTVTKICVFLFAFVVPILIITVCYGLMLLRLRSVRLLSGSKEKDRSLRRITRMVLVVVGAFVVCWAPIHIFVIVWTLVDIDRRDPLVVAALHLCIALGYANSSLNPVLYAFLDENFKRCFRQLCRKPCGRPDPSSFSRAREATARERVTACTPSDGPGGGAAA
# 1-acylglycerol-3-phosphate O-acyltransferase ABHD5/Perilipin-5, sequence (Q00G26 whole entry, the tested form may be a part): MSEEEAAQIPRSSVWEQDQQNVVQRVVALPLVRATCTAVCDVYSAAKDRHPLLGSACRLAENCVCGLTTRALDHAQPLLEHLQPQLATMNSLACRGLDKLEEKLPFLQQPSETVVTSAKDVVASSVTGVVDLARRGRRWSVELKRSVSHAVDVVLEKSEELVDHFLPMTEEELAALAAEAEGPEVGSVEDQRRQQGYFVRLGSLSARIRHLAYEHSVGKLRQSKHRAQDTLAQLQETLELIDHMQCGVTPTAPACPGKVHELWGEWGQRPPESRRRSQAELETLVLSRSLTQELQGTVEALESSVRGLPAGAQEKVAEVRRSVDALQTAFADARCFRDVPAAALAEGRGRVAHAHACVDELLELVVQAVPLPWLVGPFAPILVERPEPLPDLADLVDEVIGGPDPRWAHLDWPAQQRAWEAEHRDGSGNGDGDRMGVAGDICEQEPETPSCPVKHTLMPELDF
# 1-acylglycerol-3-phosphate O-acyltransferase ABHD5/Perilipin-5, sequence (Q8WTS1 whole entry, the tested form may be a part): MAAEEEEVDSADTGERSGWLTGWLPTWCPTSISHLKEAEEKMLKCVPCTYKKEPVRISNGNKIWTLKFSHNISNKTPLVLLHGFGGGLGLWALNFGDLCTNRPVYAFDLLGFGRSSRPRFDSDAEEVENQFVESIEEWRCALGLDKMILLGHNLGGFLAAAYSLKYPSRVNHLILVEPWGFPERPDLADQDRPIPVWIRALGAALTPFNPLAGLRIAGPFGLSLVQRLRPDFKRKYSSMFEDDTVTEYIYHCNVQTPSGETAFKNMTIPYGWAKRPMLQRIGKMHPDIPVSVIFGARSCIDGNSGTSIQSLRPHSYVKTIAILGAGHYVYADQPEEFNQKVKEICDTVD
# Nucleotide-binding oligomerization domain-containing protein 1, sequence (Q9Y239 whole entry, the tested form may be a part): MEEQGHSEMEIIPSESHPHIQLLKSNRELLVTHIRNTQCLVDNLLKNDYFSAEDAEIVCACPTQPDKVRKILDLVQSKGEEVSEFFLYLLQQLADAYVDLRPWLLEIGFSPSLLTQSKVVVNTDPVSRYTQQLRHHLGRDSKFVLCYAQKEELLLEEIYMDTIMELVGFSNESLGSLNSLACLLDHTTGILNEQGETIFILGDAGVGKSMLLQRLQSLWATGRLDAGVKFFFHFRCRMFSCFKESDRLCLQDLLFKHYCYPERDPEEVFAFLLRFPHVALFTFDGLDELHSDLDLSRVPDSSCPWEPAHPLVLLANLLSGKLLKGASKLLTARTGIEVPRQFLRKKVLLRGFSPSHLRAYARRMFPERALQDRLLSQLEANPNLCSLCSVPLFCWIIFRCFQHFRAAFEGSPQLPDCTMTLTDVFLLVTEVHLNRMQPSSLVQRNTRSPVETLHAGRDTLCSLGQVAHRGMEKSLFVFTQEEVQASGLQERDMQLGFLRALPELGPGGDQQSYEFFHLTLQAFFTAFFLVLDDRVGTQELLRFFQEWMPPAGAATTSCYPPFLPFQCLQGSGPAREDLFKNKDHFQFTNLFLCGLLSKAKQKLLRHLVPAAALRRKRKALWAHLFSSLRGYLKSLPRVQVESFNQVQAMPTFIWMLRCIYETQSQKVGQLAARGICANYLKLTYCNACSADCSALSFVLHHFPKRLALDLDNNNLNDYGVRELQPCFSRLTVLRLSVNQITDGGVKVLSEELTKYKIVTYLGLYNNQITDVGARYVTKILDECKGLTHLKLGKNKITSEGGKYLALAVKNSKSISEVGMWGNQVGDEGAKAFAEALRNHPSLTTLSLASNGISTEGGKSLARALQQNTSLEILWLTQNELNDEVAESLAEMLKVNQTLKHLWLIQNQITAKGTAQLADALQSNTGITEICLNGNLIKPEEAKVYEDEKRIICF
# Eukaryotic translation initiation factor 4E, sequence (P63073 whole entry, the tested form may be a part): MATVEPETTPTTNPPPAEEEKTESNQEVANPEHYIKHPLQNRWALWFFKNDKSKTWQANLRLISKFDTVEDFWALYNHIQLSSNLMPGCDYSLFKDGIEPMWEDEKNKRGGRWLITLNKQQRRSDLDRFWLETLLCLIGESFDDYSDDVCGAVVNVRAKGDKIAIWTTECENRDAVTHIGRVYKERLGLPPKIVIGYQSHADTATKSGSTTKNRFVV
# Induced myeloid leukemia cell differentiation protein Mcl-1, sequence (Q07820 whole entry): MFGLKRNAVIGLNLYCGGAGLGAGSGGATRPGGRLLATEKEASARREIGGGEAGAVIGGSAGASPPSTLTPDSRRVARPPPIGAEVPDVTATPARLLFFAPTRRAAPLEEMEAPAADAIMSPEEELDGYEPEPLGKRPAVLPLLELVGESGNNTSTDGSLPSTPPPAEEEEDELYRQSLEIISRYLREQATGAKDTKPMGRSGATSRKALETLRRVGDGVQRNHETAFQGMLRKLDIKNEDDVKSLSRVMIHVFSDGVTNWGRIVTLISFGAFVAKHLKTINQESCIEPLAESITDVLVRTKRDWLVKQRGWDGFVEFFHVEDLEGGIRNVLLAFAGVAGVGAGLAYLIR
# Tumor necrosis factor, sequence (P01375 whole entry, the tested form may be a part): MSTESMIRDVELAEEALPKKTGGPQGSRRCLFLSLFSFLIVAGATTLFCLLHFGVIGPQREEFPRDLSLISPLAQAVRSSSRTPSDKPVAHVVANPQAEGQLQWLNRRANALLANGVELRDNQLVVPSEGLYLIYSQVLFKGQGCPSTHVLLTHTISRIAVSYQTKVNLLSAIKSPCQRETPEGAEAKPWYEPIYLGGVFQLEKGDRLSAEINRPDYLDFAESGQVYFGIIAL
compound,measurement,setting,value
COC(=O)[C@@H](N)CS,IC50,[1],7.34 µM (active)
same,IC50,[2],4.64 µM (active)
CCC(C)(C)c1ccc(S(=O)(=O)NCc2ccc(C(=O)NCCN(Cc3ccccc3)C(C)C)cc2)cc1,IC50,[3],> 32 µM (inactive)
same,IC50,[4],> 32 µM (inactive)
same,IC50,[5],1.19 µM (active)
same,IC50,[6],0.57 µM (active)
CC1=C(C#N)C(=O)NC(=O)/C1=C\c1ccc(-c2ccc(C)cc2[N+](=O)[O-])o1,IC50,[7],2.68 µM (active)
same,IC50,[8],35.6 µM (active)
same,IC50,[9],5.46 µM (active)
same,EC50,[10],21.8 µM (active)
same,IC50,[11],13.1 µM (active)
same,IC50,[12],50 µM (inactive)
same,EC50,[13],36.4 µM (active)
CCc1ccc(S(=O)(=O)NCc2ccc(C(=O)NCCN(CC)Cc3ccccc3)cc2)cc1,IC50,[14],1.99 µM (active)
same,IC50,[3],> 32 µM (inactive)
same,IC50,[4],19.5 µM (inactive)
same,IC50,[15],14.4 µM (inactive)
COC(=O)c1sc(-c2ccc(C(C)(C)C)cc2)cc1NC(=O)/C=C/C(=O)O,AC50,[16],2.55 µM (active)
same,CC50,[17],14.1 µM (active)
same,CC50,[18],11.5 µM (active)
same,EC50,[19],0.701 µM (active)
same,AC50,[20],4.68 µM (active)
same,AC50,[21],3.96 µM (active)
same,IC50,[22],65.2 µM (active)
same,AC50,[23],23.4 µM (active)
O=C(N/N=C/c1cccc(O)c1)c1ccc(COc2ccccc2Br)cc1,AC50,[21],4.82 µM (active)
same,IC50,[24],> 150 µM (active)
CC1CCc2c(sc(NC(=O)c3ccc(Cl)cc3)c2C(=O)O)C1 (stereo not given),IC50,[25],4.41 µM (active)
same,IC50,[26],1.37 µM (active)
same,IC50,[27],5.2 µM (active)
